“Also recorded” adds a separate entry of the source. Square brackets hold non-standard residues; d marks the D form. Peptide text beside a SMILES is read from it. d2Nal = N[C@H](Cc1ccc2ccccc2c1)C(=O)O
Key:
[1] = tested on: rat model of acetic acid induced bladder irritation; assay: Rat model of acetic acid induced bladder irritation (Example 2); type: in vivo; details: for micturition pressure: Example 2, FIG. 3, after start of acetic acid infusion; for intercontraction interval (ICI): Example 2, FIG. 1, i.v. after acetic acid, Aspirin 10 mg/kg; for intercontraction interval (ICI) / bladder capacity: Icatibant 0.2, 1 and 5 mg/kg, Oxybutynin 1 mg/kg, R-715 1 mg/kg; for bladder capacity: Example 2, FIG. 2, i.v. after acetic acid, aspirin 10 mg/kg; for bladder capacity, pre-treatment: Example 2, pre-treatment prior to acetic acid application
Experimental: Groups of 5 female Wistar rats weighing 250 to 300 g anesthetized with urethane 1.2 g/kg i.p. in 5 ml/kg were used. A polyethylene catheter (PE50) was implanted into the bladder for saline or acetic acid infusion through a 3 way stopcock to which a pressure transducer is connected for measurements of bladder pressure (mm Hg). Saline at 37° C. was infused into the bladder at a constant rate until cystometrography stabilized in 60 minutes. Subsequently, 0.2% acetic acid was infused into the urinary bladder. […] The following parameters were measured continuously during baseline and for up to 1 hour post-dosing: bladder capacity (μl), intercontraction interval (ICI, in minutes, time between two voiding cycles), micturition pressure (mm Hg), micturition volume (ml, derived from the weight of excreted urine measured by a balance placed below the rat) and blood pressure (mm Hg). [table] Paired Student's test was applied for comparison between the time before (baseline) and after test substance or with vehicle treatment. To signify differences between test substance and vehicle control groups, Dunnett's test or unpair Student t test was used. Differences are considered significant at P<0.05 level.

[2] = tested on: rat model of acetic acid induced bladder irritation; assay: Rat model of acetic acid induced bladder irritation (Example 1); type: in vivo
Experimental: Groups of 5 female Wistar rats weighing 250 to 300 g anesthetized with urethane 1.2 g/kg i.p. in 5 ml/kg were used. A polyethylene catheter (PE50) was implanted into the bladder for saline or acetic acid infusion through a 3 way stopcock to which a pressure transducer is connected for measurements of bladder pressure (mm Hg). Saline at 37° C. was infused into the bladder at a constant rate until cystometrography becomes stable. Thereafter, instillation of 0.2% acetic acid into the urinary bladder was initiated. […] The following parameters were measured continuously for 1 hour after treatment was started: intercontraction interval (ICI, minutes, defined as the time between two voiding cycles), threshold pressure (mmHg), bladder capacity (ml), micturition volume (ml), and micturition pressure (mmHg). Micturition volume is derived from the weight of excreted urine measured by a balance placed below the rat.
Paired Student's test was applied for comparison between the time before and after test substance or with vehicle treatment. To signify differences between test substance and vehicle control group, Dunnett's test was used. Differences are considered significant at P<0.05.

[3] = target: T1, guinea pig B2 receptors (Cavia porcellus, UniProt O70526); details: human INT407 cells; cited from earlier work
T1 construct: host or cells: human INT407 cells
T1 sequence (O70526 1-372): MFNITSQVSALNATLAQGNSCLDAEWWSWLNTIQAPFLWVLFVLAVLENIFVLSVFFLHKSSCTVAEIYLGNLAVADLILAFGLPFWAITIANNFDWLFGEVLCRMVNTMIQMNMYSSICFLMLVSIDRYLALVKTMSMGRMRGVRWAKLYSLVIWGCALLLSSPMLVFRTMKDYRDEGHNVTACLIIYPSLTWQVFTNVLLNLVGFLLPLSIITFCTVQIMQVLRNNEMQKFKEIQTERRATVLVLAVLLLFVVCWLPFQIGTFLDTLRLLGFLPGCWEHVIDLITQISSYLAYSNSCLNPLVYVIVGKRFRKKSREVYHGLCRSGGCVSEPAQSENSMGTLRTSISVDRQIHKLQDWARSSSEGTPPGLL

| SMILES | micturition pressure [1] | intercontraction interval (ICI) [1] | bladder capacity [1] | bladder capacity, pre-treatment [1] | other results |
| --- | --- | --- | --- | --- | --- |
| CC[C@H](C)[C@H](NC(=O)[C@@H](Cc1ccc2ccccc2c1)NC(=O)[C@H](CO)NC(=O)[C@H](Cc1ccccc1)NC(=O)CNC(=O)[C@@H]1CCCN1C(=O)[C@@H]1CCCN1C(=O)[C@H](CCCN=C(N)N)NC(=O)[C@H](CCCCN)NC(C)=O)C(=O)O [R-715, H-Ac-Lys-Arg-Pro-Pro-Gly-Phe-Ser-D-Nal-Ile-OH] (Ac-KRPPGFS[d2Nal]I-OH) | without any change | – | – | – | – |
| CCN(CC)CC#CCOC(=O)C(O)(c1ccccc1)C1CCCCC1 (stereo not drawn) [Oxybutynin, 4-diethylaminio-2-butynyl phenylcyclohexyglycolate] | – | if any, only slight positive effects | no significant effects | – | – |
| COc1cc(CNC(=O)CCCC/C=C/C(C)C)ccc1O [Capsaicin] | – | – | – | completely blocks the acetic acid induced decrease of bladder capacity | intercontraction interval (ICI), Capsaicin pre-treatment ([1]; Example 2, 25 mg/kg and 50 mg/kg s.c., 4 days prior to experiment): inhibition of the acetic acid—triggered ICI—decrease |
| CC[C@H](C)[C@H](NC(=O)[C@@H](Cc1ccc2ccccc2c1)NC(=O)[C@H](CO)NC(=O)[C@H](Cc1ccccc1)NC(=O)CNC(=O)[C@@H]1CCCN1C(=O)[C@@H]1CCCN1C(=O)[C@H](CCCNC(=N)N)NC(=O)[C@H](CCCCN)NC(C)=O)C(=O)O [R-715, H-Ac-Lys-Arg-Pro-Pro-Gly-Phe-Ser-D-Nal-Ile-OH] (Ac-KRPPGFS[d2Nal]I-OH) | – | becomes effective over the study time as well but positive effects on ICI are delayed; also recorded: doubling | increases the bladder capacity until reaching the baseline levels; also recorded: tripling | – | – |
| NC(N)=NCCC[C@@H](N)C(=O)N[C@@H](CCCN=C(N)N)C(=O)N1CCC[C@H]1C(=O)N1C[C@H](O)C[C@H]1C(=O)NCC(=O)N[C@@H](Cc1cccs1)C(=O)N[C@@H](CO)C(=O)N1Cc2ccccc2C[C@@H]1C(=O)N1[C@H](C(=O)N[C@@H](CCCN=C(N)N)C(=O)O)C[C@@H]2CCCC[C@@H]21 [Icatibant, H-D-Arg-Arg-Pro-Hyp-Gly-Thi-Ser-D-Tic-Oic-Arg-OH] | without any change | increases; also recorded: doubling | increases the bladder capacity until reaching the baseline levels; also recorded: tripling | completely blocks the acetic acid induced decrease of bladder capacity | intercontraction interval (ICI) ([2]; Example 1, FIG. 1, in comparison to the vehicle group, i.v. after start of acetic acid infusion): dose-dependently increases; bladder capacity ([2]; Example 1, FIG. 2, in comparison to the vehicle group, i.v. after start of acetic acid infusion): dose-dependently increases; micturition pressure ([2]; Example 1, FIG. 3, i.v. after start of acetic acid infusion): no decrease; bladder capacity ([2]; Example 1 summary, 1 mg/kg): doubling; interval between two micturition contractions ([2]; Example 1 summary, 1 mg/kg): doubling; micturition pressure ([2]; Example 1 summary, 1 mg/kg): without any change; reversal of acetic acid induced detrusor instabilities ([2]; rat, 1 mg/kg i.v.): able to reverse; intercontraction interval (ICI), pre-treatment ([1]; Example 2, 1 mg/kg i.v. 30 minutes prior to intravesical acetic acid infusion): strongly inhibits decrease of ICI; lowest dose at which maximal effects on ICI were reached ([1]; Example 2, i.v. after acetic acid): 0.2 mg/kg; acetic acid induced bladder dysfunction, pre-treatment ([1]; Example 2 summary, pre-treatment before acetic acid): complete inhibition; inhibition of BK-mediated inositol phosphate generation [3]: efficiently inhibited |
| CC(=O)Oc1ccccc1C(=O)O [Aspirin] | – | increases | increases the bladder capacity until reaching the baseline levels | – | – |
